The source of these data is publication PMC9852841, “Expanding the toolbox of metabolically stable lipid prodrug strategies” (Frontiers in Pharmacology, 2023).

Where two headings read alike, the source gives them in different places.

The subject of series [1] is VSV pseudotype HIV-like viral particles. Put plainly: organism not typed. The series is classed as cell-based. The settings on record: for IC50: read-out: HIV IC50.
Series [2] can be described thus: Metabolic stability in human liver microsomes. As to conditions: for HLM stability (in words) / HLM t1/2: human liver microsomes; for HLM t1/2 / half-life at 3 µM: 3 μM prodrug, NADPH, 0-120 min; for microsomal CLint at 3 µM / half-life at 3 µM: human, microsomes; for microsomal CLint at 3 µM: pH 7.4; for half-life at 3 µM: pH 7.4, HLM t1/2, human liver microsomes. (Liver microsomes are vesicles of endoplasmic reticulum, rich in cytochrome P450 enzymes.)

The nature of series [3]: Solubility observations (aqueous, HSA formulations, growth media). The series is classed as physicochemical. As to conditions: observational, relative to TXL.
The nature of series [4]: Cytotoxicity assay (cell viability, CellTiter 96 or resazurin). The settings on record: human, HEK293T cells.
The conditions of series [5]: dogs, single TAF dose.
For series [6] the following is noted: dogs, single TAF dose, cited from earlier work.
Another series in a line: in vitro. As to conditions: human, microsomes, pH 7.4.
The test system of series [7] is VSV pseudotype HIV-like viral particles. More on the design: method as in Pribut et al., 2021. As to conditions: preliminary pseudoviral assay results; ref Pribut et al., 2021; cited from earlier work.

The term IC50 denotes the midpoint of a concentration-inhibition curve. On to `CCCCOCCCCCOCCCCCOCCCOP(=O)(O)CO[C@H](C)Cn1cnc2c(N)ncnc21.N` [Compound 10, Ammonium [(1R)-2-(6-aminopurin-9-yl)-1-methyl-ethoxy]methyl-[3-[5-(5-butoxypentoxy)pentoxy]propoxy]phosphinate], for which, in series [1], the “antiviral activity (in words)” value is “completely abrogated antiviral activity” and the “loss of antiviral activity” value is > 1,800 fold. Further, in series [1] (HEK-293T, 48 h), the IC50 was more than 32 µM.

For orientation: microsomal CLint means a measure of how fast metabolising enzymes remove a compound, apart from limits set by blood flow. A high value points to faster metabolism. The half-life is the time in which the quantity being followed falls by half. For the molecule `CCCCCCCCOCCCCCOCCCCCOP(=O)(O)CO[C@H](C)Cn1cnc2c(N)ncnc21.N` [Compound 11, Ammonium 5-(5-octoxypentoxy)pentoxy-[[(1R)-2-(6-aminopurin-9-yl)-1-methyl-ethoxy]methyl]phosphinate], in series [1], the “antiviral activity (in words)” value is reported as “low μM range” and the “decay of antiviral activity with inclusion of the second oxygen atom” value came to 78 fold. Also, in series [1] (HEK-293T, 48 h), the IC50 was 4.05 µM. For the same molecule, in series [2], the “HLM stability (in words)” value is given as “less stable in HLM relative to TXL”, the “HLM t1/2” value is reported as 12 min, the microsomal CLint at 3 µM was found to be 58.6 µL/min/mg and the half-life at 3 µM amounted to 11.8 min.

The CC50 is the concentration giving 50% cytotoxicity. A lower CC50 goes with greater toxicity to the cells. For the molecule `COCCOCCOCCOCCOCCOCCOP(=O)(O)CO[C@H](C)Cn1cnc2c(N)ncnc21.N` [Compound 12, Ammonium 2,5,8,11,14,17-hexaoxanonadecan-19-yl (R)-(((1-(6-amino-9H-purin-9-yl)propan-2-yl)oxy)methyl)phosphonate], the IC50 in series [1] (HEK-293T, 48 h) is 31.2 µM; in series [1] it was 34.6 µM. The “aqueous solubility (in words)” value in series [3] is “observationally increased aqueous solubility”. In series [4], this molecule registered a CC50 at 48 h of more than 100 µM.

Take `COCCOCCOCCOCCOP(=O)(O)CO[C@H](C)Cn1cnc2c(N)ncnc21.N` [Compound 13, Ammonium [(1R)-2-(6-aminopurin-9-yl)-1-methyl-ethoxy]methyl-[2-[2-[2-(2-methoxyethoxy)ethoxy]ethoxy]ethoxy]phosphinate]: the IC50 in series [1] (HEK-293T, 48 h) stood at 26.7 µM; in series [1], 23.4 µM. In addition, the “aqueous solubility (in words)” value in series [3] is “observationally increased aqueous solubility”. The same molecule showed a CC50 at 48 h in series [4] of more than 100 µM.

Consider `COCCOCCOP(=O)(O)CO[C@H](C)Cn1cnc2c(N)ncnc21.N` [Compound 14, Ammonium [(1R)-2-(6-aminopurin-9-yl)-1-methyl-ethoxy]methyl-[2-(2-methoxyethoxy)ethoxy]phosphinate], for which the IC50 was 21.4 µM in series [1] (HEK-293T, 48 h) and 19.4 µM in series [1]. Also, the “aqueous solubility (in words)” value in series [3] was “observationally increased aqueous solubility”. The CC50 at 48 h in series [4] is more than 100 µM.

As to `CCCCCCCCCCCCCCCCCOCCOP(=O)(O)CO[C@H](C)Cn1cnc2c(N)ncnc21.N` [Compound 18, Ammonium 2-heptadecoxyethoxy-[[(1R)-2-(6-aminopurin-9-yl)-1-methyl-ethoxy]methyl]phosphinate], the “boost in potency relative to analogue 20” value in series [1] turned out to be 17 fold. In addition, in series [1] (HEK-293T, 48 h), the IC50 was found to be 0.003 µM. Further, in series [2], the “HLM t1/2” value turned out to be 35 min, the microsomal CLint at 3 µM was determined as 19.8 µL/min/mg and the half-life at 3 µM came out at 34.9 min.

Regarding `CCCCCCCCCCCCCCCOCCCCOP(=O)(O)CO[C@H](C)Cn1cnc2c(N)ncnc21.N` [Compound 19, Ammonium 4-pentadecoxybutoxy-[[(1R)-2-(6-aminopurin-9-yl)-1-methyl-ethoxy]methyl]phosphinate], in series [1] (HEK-293T, 48 h), the IC50 turned out to be 0.03 µM. In series [2], the “HLM t1/2” value came out at 48 min and the microsomal CLint at 3 µM is 14.4 µL/min/mg.

On to `CCCCCCCCCCCCCCOCCCCCOP(=O)(O)CO[C@H](C)Cn1cnc2c(N)ncnc21.N` [Compound 20, Ammonium [(1R)-2-(6-aminopurin-9-yl)-1-methyl-ethoxy]methyl-(5-tetradecoxypentoxy)phosphinate], for which the IC50 in series [1] (HEK-293T, 48 h) worked out at 0.052 µM. Besides, in series [2], the “HLM t1/2” value came to 31 min, the microsomal CLint at 3 µM amounted to 22.5 µL/min/mg and the half-life at 3 µM is 30.9 min.

With `CCCCCCCCCCCCCCCCCCOCCOP(=O)(O)CO[C@H](C)Cn1cnc2c(N)ncnc21.N` [Compound 21, Ammonium 2-octadecoxyethoxy-[[(1R)-2-(6-aminopurin-9-yl)-1-methyl-ethoxy]methyl]phosphinate], in series [1] (HEK-293T, 48 h), the IC50 amounted to 0.003 µM. For the same molecule, in series [2], the “HLM stability (in words)” value is reported as “improved stability in HLM”, the “HLM t1/2” value came to 105 min and the microsomal CLint at 3 µM came out at 6.6 µL/min/mg.

For the molecule `C[C@H](Cn1cnc2c(N)ncnc21)OCP(=O)(O)OCCOCCCCCCCCCCCCCC#CC(F)(F)F.N` [Compound 32, Ammonium 2-((16,16,16-trifluorohexadec-14-yn-1-yl)oxy)ethyl (R)-(((1-(6-amino-9h-purin-9-yl)propan-2-yl)oxy)methyl)phosphonate], in series [1] (HEK-293T, 48 h), the IC50 was 0.016 µM. Also, in series [2], the “HLM t1/2” value is recorded as more than 120 min and the microsomal CLint at 3 µM was less than 5.78 µL/min/mg.

Regarding `C[C@H](Cn1cnc2c(N)ncnc21)OCP(=O)(O)OCCOCCCCCCCCCCCCCCC#CC(F)(F)F.N` [Compound 33, Ammonium 2-((17,17,17-trifluoroheptadec-15-yn-1-yl)oxy)ethyl (R)-(((1-(6-amino-9h-purin-9-yl)propan-2-yl)oxy)methyl)phosphonate], the IC50 in series [1] (HEK-293T, 48 h) worked out at 0.0106 µM. In addition, in series [2], the “HLM t1/2” value is reported as more than 120 min and the intrinsic metabolic clearance (microsomal CLint) at 3 µM is less than 5.78 µL/min/mg.

In the case of `C[C@H](Cn1cnc2c(N)ncnc21)OCP(=O)(O)OCCOCCCCCCCCCCCCCCCC(F)(F)F.N` [Compound 36, Ammonium 2-((16,16,16-trifluorohexadecyl)oxy)ethyl (R)-(((1-(6-amino-9H-purin-9-yl)propan-2-yl)oxy)methyl)phosphonate], the half-inhibitory concentration (IC50) in series [1] (HEK-293T, 48 h) turned out to be 0.0088 µM. Besides, in series [2], the “HLM t1/2” value is more than 120 min and the microsomal CLint at 3 µM was less than 5.78 µL/min/mg.

Consider `C[C@H](Cn1cnc2c(N)ncnc21)OCP(=O)(O)OCCOCCCCCCCCCCCCCCCCC(F)(F)F.N` [Compound 37, Ammonium 2-((17,17,17-trifluoroheptadecyl)oxy)ethyl (R)-(((1-(6-amino-9h-purin-9-yl)propan-2-yl)oxy)methyl)phosphonate], for which the IC50 in series [1] (HEK-293T, 48 h) is 0.0126 µM. In addition, in series [2], the “HLM t1/2” value is given as more than 120 min and the microsomal CLint at 3 µM was less than 5.78 µL/min/mg.

Consider `C[C@H](Cn1cnc2c(N)ncnc21)OCP(=O)(O)OCCOCCCCCCCCCCC#Cc1ccc(S(F)(F)(F)(F)F)cc1.N` [Compound 40, Ammonium [(1R)-2-(6-aminopurin-9-yl)-1-methyl-ethoxy]methyl-[2-[12-[4-(pentafluorosulfanyl)phenyl]dodec-11-ynoxy]ethoxy]phosphinate], for which the IC50 in series [1] (HEK-293T, 48 h) amounted to 0.0146 µM. In addition, in series [2], the “HLM t1/2” value is recorded as more than 120 min and the microsomal CLint at 3 µM was less than 5.78 µL/min/mg.

As for `C[C@H](Cn1cnc2c(N)ncnc21)OCP(=O)(O)OCCOCCCCCCCCCCCCc1ccc(S(F)(F)(F)(F)F)cc1.N` [Compound 42, Ammonium [(1R)-2-(6-aminopurin-9-yl)-1-methyl-ethoxy]methyl-[2-[12-[4-(pentafluorosulfanyl)phenyl]dodecoxy]ethoxy]phosphinate], in series [1] (HEK-293T, 48 h), the IC50 is 0.0254 µM. Further, in series [2], the “HLM t1/2” value is listed as more than 120 min and the microsomal CLint at 3 µM is less than 5.78 µL/min/mg.

Turning to `CC(C)OC(=O)[C@H](C)N[P@](=O)(CO[C@H](C)Cn1cnc2c(N)ncnc21)Oc1ccccc1` [TAF, tenofovir alafenamide], in series [5], the “fraction of dose remaining available to access HIV-infected cells” value came out at 18% and the “fraction of dose sequestered for toxic side effects” value amounted to 82%. Further, the “fraction of dose extracted by the liver” value in series [6] (ref Babusis et al., 2013) is 65%. In addition, in series [6] (ref Lee et al., 2005), the “fraction of a single dose converted to plasma TFV” value is recorded as 17%.

As for `CCCCCCCCCCCCCCCCOCCCOP(=O)(O)CO[C@H](C)Cn1cnc2c(N)ncnc21` [TXL, tenofovir Exalidex, reference compound], the IC50 in series [1] (HEK-293T, 48 h) amounted to 0.018 µM. For the same molecule, in series [2], the “HLM t1/2” value is 41.6 min and the half-life at 3 µM is 42 min. Moreover, the microsomal CLint in “in vitro” came out at 16.7 µL/min/mg.

For `CCCCCCCCCCCCCCCCCCCCOP(=O)(O)COC(C)Cn1cnc2c(N)ncnc21` (centres unmarked) [arachidyl TFV], in series [7], the IC50 is 0.127 µM.
